The structures appear in SMILES notation. Values joined by “and” are separate entries in the source; they are usually repeats but may differ in a detail not shown here. Equal entries are not always repeated. Where two headings read alike, the source gives them in different places.

One data set in a line: in vitro. The settings on record: African green monkey.
The subject of data set [1] is proliferating, uninfected Vero 76 cells.
Data set [2] deals with Dengue virus Type 2 (New Guinea C strain). Kind of data set: microbe, parasite or virus in culture. In kind it is cell-based. The conditions noted are these: for EC50: Dengue virus, Vero 76, read-out: EC50 (mean 50% effective, virus-inhibitory concentration ± SD).
The subject of data set [3] is Chikungunya virus (S27 strain). Kind of data set: microbe, parasite or virus in culture. The data set is classed as cell-based. The settings on record: for EC50: Chikungunya virus, Vero 76, read-out: EC50 (mean 50% effective, virus-inhibitory concentration ± SD).
Data set [4] relates to Junin virus (Candid #1 strain). In kind it is cell-based.

In the case of `Nc1cc2nc[nH]c2c(=O)[nH]1` [3-Deazaguanine], the CC50 in the data set “in vitro” (CC50 with ALB-F) was 83 to 93 µM. The compound also returned a CC50 in “in vitro” (CC50 with all other dyes including ALB-A) of 2.4 to 7 µM. Further, in data set [1] (African green monkey), the “Mean 50% cytotoxic concentration ± SD, Neutral Red” value amounted to 3.0 ± 1.1 µM and the “Mean 50% cytotoxic concentration ± SD, Viral ToxGlo” value amounted to 1.5 ± 0.7 µM. Moreover, in data set [2], the “SI (Selectivity Index, CC50/EC50)” value is listed as over 22 and the EC50 is 4.6 ± 6.3 µM. Moreover, in data set [3], the “Inhibition of chikungunya virus (in words)” value is reported as “inhibited”; the “SI (Selectivity Index, CC50/EC50)” value was over 8; the EC50 was found to be 13 ± 8.3 µM. In data set [4], the “Inhibition of Junin virus (in words)” value was “inhibited” and the “SI (Selectivity Index, CC50/EC50)” value is on record as over 63.
Compound `O=c1cnn([C@@H]2O[C@H](CO)[C@@H](O)[C@H]2O)c(=O)[nH]1` [6-Azauridine] returned a CC50 in “in vitro” (CC50 (toxicity) with ALB-A and ALB-F) of 48 to 92 µM. Moreover, in the data set “in vitro” (CC50 (toxicity) with NR, VTG, and WST-1), the CC50 fell in the range of 6.1 to 17.5 µM. In data set [1] (4 days, N=3), the “Mean 50% cytotoxic concentration ± SD, ALB-Abs” value was 48.0 ± 11.5 µM and 48.0 ± 19.9 µM; the “Mean 50% cytotoxic concentration ± SD, ALB-Fluor” value was 69.0 ± 10.5 μM and 94.0 ± 10.4 ^*^, ^φ μM; the “Mean 50% cytotoxic concentration ± SD, Neutral Red” value came to 6.2 ± 0.9 µM; the “Mean 50% cytotoxic concentration ± SD, Viral ToxGlo” value came to 17.0 ± 5.3 µM. Also, in data set [1] (4 days, N=3), the “Mean 50% cytotoxic concentration ± SD, WST-1” value was 6.2 ± 1.0 μM and 7.1 ± 1.8 ^b μM. In data set [2], the “SI (Selectivity Index, CC50/EC50)” value is listed as over 12 and the EC50 is 8.4 ± 10.8 µM. In data set [3], the “Inhibition of chikungunya virus (in words)” value is reported as “inhibited”; the “SI (Selectivity Index, CC50/EC50)” value is recorded as over 13; the EC50 stood at 8 ± 10.4 µM. Moreover, in data set [4], the “Inhibition of Junin virus (in words)” value is “inhibited” and the “SI (Selectivity Index, CC50/EC50)” value is listed as over 151.
In the case of `Nc1ncnc2c([C@@H]3N[C@H](CO)[C@@H](O)[C@H]3O)c[nH]c12` [BCX4430], in data set [2], the “Inhibition of dengue virus (in words)” value is “weak dengue-inhibitory activity”; the “SI (Selectivity Index, CC50/EC50)” value was over 3; the EC50 was 37 ± 22 µM. For the same compound, the EC50 in data set [3] is over 100 µM.
In the data set “in vitro” (CC50, range over the dyes), `C#Cc1c(C(N)=O)ncn1[C@@H]1O[C@H](CO)[C@@H](O)[C@H]1O` [EICAR, 5-ethynyl-1-beta-D-ribofuranosylimidazole-4-carboxamide] gave a CC50 of 1.5 to 8.9 µM. Moreover, in data set [1] (4 days, N=3), the “Mean 50% cytotoxic concentration ± SD, ALB-Abs” value was 4.9 ± 1.4 µM and 3.9 ± 1.3 µM; the “Mean 50% cytotoxic concentration ± SD, ALB-Fluor” value was 9.5 ± 4.2 µM and 8.2 ± 2.2 µM; the “Mean 50% cytotoxic concentration ± SD, Neutral Red” value was 2.9 ± 1.0 µM; the “Mean 50% cytotoxic concentration ± SD, Viral ToxGlo” value amounted to 2.7 ± 1.4 µM. For the same compound, in data set [1] (4 days, N=3), the “Mean 50% cytotoxic concentration ± SD, WST-1” value was 2.8 ± 1.1 µM and 3.9 ± 1.3 µM. Moreover, in data set [2], the “SI (Selectivity Index, CC50/EC50)” value was over 8 and the EC50 is 13.3 ± 22.1 µM. For the same compound, in data set [3], the “Inhibition of chikungunya virus (in words)” value is “inhibited”; the “SI (Selectivity Index, CC50/EC50)” value is given as over 10; the EC50 came out at 10.3 ± 13 µM. For the same compound, in data set [4], the “Inhibition of Junin virus (in words)” value is on record as “inhibited” and the “SI (Selectivity Index, CC50/EC50)” value is recorded as over 52.
Take `NC(=O)c1nc(F)c[nH]c1=O` [Favipiravir]: the EC50 in data set [2] is over 100 µM. In addition, in data set [3], the EC50 was over 100 µM. Further, in data set [4], the “Inhibition of Junin virus (in words)” value is reported as “inhibited” and the “SI (Selectivity Index, CC50/EC50)” value is over 23.
Take `COc1c(C)c2c(c(O)c1C/C=C(\C)CCC(=O)O)C(=O)OC2` [Mycophenolic acid, mycophenolic acid]: the CC50 in the data set “in vitro” (CC50, range over the dyes) is 0.8 to 2.5 µM. In data set [1] (4 days, N=3), the “Mean 50% cytotoxic concentration ± SD, ALB-Abs” value was 1.4 ± 0.3 µM and 1.2 ± 0.2 µM; the “Mean 50% cytotoxic concentration ± SD, ALB-Fluor” value is 1.9 ± 0.1 µM and 2.5 ± 0.5 µM; the “Mean 50% cytotoxic concentration ± SD, Neutral Red” value turned out to be 0.8 ± 0.6 µM; the “Mean 50% cytotoxic concentration ± SD, Viral ToxGlo” value turned out to be 0.7 ± 0.2 µM. In data set [1] (4 days, N=3), the “Mean 50% cytotoxic concentration ± SD, WST-1” value worked out at 0.5 ± 0.1 µM. Also, in data set [2], the “SI (Selectivity Index, CC50/EC50)” value is on record as over 22 and the EC50 was found to be 4.5 ± 6.6 µM. Besides, in data set [3], the “Inhibition of chikungunya virus (in words)” value is “inhibited”; the “SI (Selectivity Index, CC50/EC50)” value was over 61; the EC50 was found to be 1.6 ± 1.7 µM. Further, in data set [4], the “Inhibition of Junin virus (in words)” value is recorded as “inhibited” and the “SI (Selectivity Index, CC50/EC50)” value was over 100.
On to `NC(=O)c1ncn([C@@H]2O[C@H](CO)[C@@H](O)[C@H]2O)n1` [Ribavirin, 1-beta-D-ribofuranosyl-1,2,4-triazole-3-carboxamide], for which the EC50 in data set [2] and in data set [3] was over 100 µM throughout. Moreover, the “Inhibition of Junin virus (in words)” value in data set [4] is “inhibited”. In addition, in data set [4], the “SI (Selectivity Index, CC50/EC50)” value is on record as over 7.
With `NC(=O)c1csc([C@@H]2O[C@H](CO)[C@@H](O)[C@H]2O)n1` [Tiazofurin], in data set [2], the “Inhibition of dengue virus (in words)” value was “ineffective” and the EC50 is over 100 µM. In data set [3], the “Inhibition of chikungunya virus (in words)” value is “ineffective” and the EC50 was over 100 µM. Moreover, in data set [4], the “Inhibition of Junin virus (in words)” value is “ineffective”.

The values are drawn from paper PMC5479350 (Journal of virological methods, 2017).
